These results are taken from patent US6806377B1, “Preparation of metallocenes carrying a cyclopentadiene comprising a basic donor group” (The University of Leeds, priority 1999, dated 2004).

For data set [1] the following is noted: background statement; cited from earlier work.
Data set [2] in a line: stability towards water, air, moisture and heat (qualitative statements). The format is physicochemical. Particulars: for air / moisture stability: air and moisture.
Data set [3] in a line: solubility in solvents (qualitative statements). The format is physicochemical.

On to titanocene dichloride, for which, in data set [1], the “stability in aqueous solution” value was “unstable”.

For the substance (Cp(CH2)2N(CH2)5)2TiMe2 [Compound 3], in data set [2], the thermal stability result is “thermally stable” and the “air / moisture stability” value is recorded as “highly air sensitive”.

As for “(CpCH2CH2N(CH2)2(CH2)2)2TiCl2.2HCl [Compound 2]”, in data set [3] (polar solvent such as methanol, water and acetonitrile), the “solubility in a polar solvent” value was “soluble”. In data set [3] (water), the water solubility result is “water soluble”. For the same substance, the “air / moisture stability” value in data set [2] was “air stable”. Besides, the storage stability entry in data set [2] (storage of the protected titanocene) was “can be stored indefinitely”.

In the case of (CpCH2CH2N(CH2)2)2)TiCl2 [Compound 1], the “solubility in aprotic, polar and non-polar solvents” value in data set [3] (solvents such as ether and toluene) was “soluble”. Besides, in data set [2], the “air / moisture stability” value is “highly air and moisture sensitive”.
